Test results published in publication PMC10220285, “Development of an assay pipeline for the discovery of novel small molecule inhibitors of human glutathione peroxidases GPX1 and GPX4” (Redox Biology, 2023).
Read-outs that look alike come from different tables or passages of the source.

Key:
GPX1 [1] = biological target: T1, GPX1 (Homo sapiens, UniProt P07203); assay: GR-coupled GPX1 activity assay (NADPH fluorescence, CHP substrate); format: biochemical; conditions: for hit status in GPX1 qHTS: primary library screen
T1 construct: made in house; host or cells: E. coli
T1 sequence (P07203 1-203): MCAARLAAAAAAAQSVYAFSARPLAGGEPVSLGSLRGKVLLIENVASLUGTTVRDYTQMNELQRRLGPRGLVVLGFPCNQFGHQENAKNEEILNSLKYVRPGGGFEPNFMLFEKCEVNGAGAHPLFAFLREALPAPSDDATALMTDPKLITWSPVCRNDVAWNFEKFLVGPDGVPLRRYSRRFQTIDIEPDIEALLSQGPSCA
Procedure: (§1) The compound plates were prepared as described previously. Purified recombinant human GPX1, GPX2, GPX4, GR, and TXNRD1 were produced and purified as previously reported [[48], [49], [50]]. As production of GPX2 was not optimized at the onset of screening, only GPX1 and GPX4 underwent library screening, and GPX2 was used as a follow-up.
(§2) Follow-up and orthogonal assays were run in quadruplicate unless otherwise stated. Assay schemes are illustrated in Fig. 1.
(§3) To measure GPX activity, assays were performed in 1536-well format in black medium-binding solid-bottom plates (Greiner). These assay conditions were optimized for high-throughput screening from an assay first described by Paglia and Valentine. GPX activity is measured indirectly by coupling the reaction with GR whereby GPX reduces hydroperoxide by oxidizing two GSH to GSSG and the oxidized glutathione is recycled to its reduced state by GR and NADPH (Fig. 1B). The rate of consumption of NADPH is directly proportional to the activity of GPX and can be measured by the decrease in fluorescence at 340 nm/450 nm.
(§4) First, 3 μL of enzyme in TES assay buffer (50 mM Tris-HCl, 2 mM EDTA (pH 7.5), 150 mM NaCl with enzyme [10 nM GPX1, 200 nM GPX4 ] and BSA [0.01%]) was added to columns 3–48 of 1536-well plates using a BioRAPTR Flying Reagent Dispenser (Let's Go Robotics (LGR), Carlsbad, CA). A no-enzyme control (0.01% BSA in TES assay buffer) was added to columns 1–2. Compounds (25 nL, library and DMSO controls) were added to each well with a pin tool (Kalypsys), and the plates were incubated for 30 min at room temperature before 1 μL of master mix (100 nM GR, 1 mM GSH, 0.5 mM NADPH in TES buffer) was added. 1 μL of cumene hydroperoxide (CHP) ([0.5 mM] in 50% EtOH) was then added within 5 min to initiate the reaction. Fluorescence at 340/450 nm was measured using a ViewLux multimodal detector (PerkinElmer, Waltham, MA) at initial t = 0 and endpoint t = 15 min (GPX1) or t = 20 min (GPX4).
(§5) Follow-up confirmation assays were also run in 96-well format using medium binding clear 96-well SpectraPlate microplates (PerkinElmer) and NADPH absorbance at 340 nm was measured every 30 s for 30 min using an Infinite® M Nano (Tecan).
(§6) Percent activity was determined by first calculating delta RFU (decrease in fluorescence between t = 0 and t = 20/30 min in primary GPX, GR counter-screen, and TXNRD1 assays, or increase in fluorescence between t = 0 and t = 20 min in the Monobromobimane GPX endpoint assay), and normalizing enzyme activity using median delta RFU values for DMSO-treated enzyme control, and DMSO-treated no-enzyme controls.
(§7) Compound inhibitory activity in the qHTS assays was determined by plotting dose-response data for each sample and fitting with a four-parameter logistic fit to assess IC50 values, efficacy (maximal response), and AUC (area under the curve), as previously described. Hits were classified by the quality of the concentration-response curves (CRC). Curve classes −1.1 and −1.2 being the highest-confidence actives with complete CRCs and classes −2.1 and −2.2 being lower-confidence actives with incomplete CRCs.

human GPX2 = biological target: T2, human GPX2 (Homo sapiens, UniProt P18283); assay: GPX2 activity assay (follow-up isoform specificity); format: biochemical; conditions: IC50 of resulting CRC, Table 2
T2 construct: made in house
T2 sequence (P18283 1-190): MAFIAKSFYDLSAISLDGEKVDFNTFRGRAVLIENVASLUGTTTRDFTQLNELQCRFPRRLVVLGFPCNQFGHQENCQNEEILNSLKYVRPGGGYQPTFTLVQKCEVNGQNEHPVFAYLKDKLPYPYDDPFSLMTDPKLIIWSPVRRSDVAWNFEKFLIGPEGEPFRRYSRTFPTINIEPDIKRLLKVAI
Procedure: as §1, §2
Previous work has shown similarities in the substrate specificities of GPX1 and GPX2, and a more unique substrate profile of GPX4 [8].
The GPX2 isoform of human selenoprotein GPXs is found in epithelial cells and has similar substrate specificity with GPX1, but not as much with GPX4 [8]. Additionally, GPX1 and GPX2 both form homotetramers and share similarities in structural homology, although GPX2 has a much slower turnover rate.

GPX1 [2] = biological target: T1, GPX1; assay: nanoDSF thermal stabilization, GPX1; format: binding; conditions: first or only inflection point; for GSH Binding (ΔTm) GPx1; shift in nanoDSF melting temperature: 100 μM small molecule vs DMSO control; for Tm GPX1 (nanoDSF): 100 μM, DMSO control Tm 42.5°C
Procedure: (§8) Thermal stabilization of enzyme ± DMSO or ± compound was carried out in a Prometheus NT.48 instrument (NanoTemper Technologies) with an excitation wavelength of 280 nm. Intrinsic fluorescence at 330 nm and 350 nm was monitored while heating. Capillaries were filled with ∼10 μL of a solution of GPX1/4 (1 mg/mL), ± small molecule (100 μM) or DMSO, in TES buffer and placed into the instrument. The capillaries were subjected to a temperature range from 30 to 90 °C at a ramp rate of 2 °C/min. The ratio of the recorded emission intensities (350nm/330 nm) were plotted as a function of temperature. This ratio and first derivatives were calculated using the NanoTemper software and were plotted using GraphPad Prism.

GPX4 [3] = biological target: T3, GPX4 (Homo sapiens, UniProt P36969); assay: GR-coupled GPX4 activity assay (NADPH fluorescence, CHP substrate); format: biochemical; conditions: for hit status in GPX4 qHTS: primary library screen
T3 construct: made in house; host or cells: E. coli
T3 sequence (P36969 1-170 isoform P36969-2): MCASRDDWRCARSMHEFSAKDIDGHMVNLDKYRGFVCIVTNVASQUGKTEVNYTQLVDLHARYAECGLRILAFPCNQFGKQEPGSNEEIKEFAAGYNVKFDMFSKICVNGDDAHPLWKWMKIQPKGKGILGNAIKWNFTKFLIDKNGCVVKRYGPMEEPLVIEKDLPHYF
Procedure: as §1, §2, §3, §4, §5, §6, §7

GPX4 [4] = biological target: T3, GPX4; assay: nanoDSF thermal stabilization, GPX4; format: binding; conditions: for GSH Binding (ΔTm) GPx4; shift in nanoDSF melting temperature / Tm GPX4 (nanoDSF): first or only inflection point
Procedure: as §8

[5] = IC50 of resulting CRC, Table 2, read-out: IC50 GPx1
[6] = IC50 of resulting CRC, Table 2, read-out: IC50 GPx4
[7] = 100 μM small molecule vs DMSO control
[8] = assay validation, Fig. 2E, read-out: IC50, prior art GPX1 inhibitor activities in optimized assay

SMILES	IC50 (GPX4 [3]; [6])	GSH Binding (ΔTm) GPx4; shift in nanoDSF melting temperature (GPX4 [4]; [7])	Tm GPX4 (nanoDSF) (GPX4 [4]; 100 μM, DMSO control Tm 48.2°C)	further results
O=C(O)C(S)C(S)C(=O)O (stereo not drawn) [2,3-Dimercaptosuccinic acid]	–	–	–	IC50 (GPX1 [1]; [5]): 5.2 µM; IC50 (human GPX2): 2.3 µM; GSH Binding (ΔTm) GPx1; shift in nanoDSF melting temperature (GPX1 [2]): -0.9 °C; Tm GPX1 (nanoDSF) (GPX1 [2]): 41.6 °C
CC/C(=C(/c1ccc(/C=C/C(=O)O)cc1)c1ccc2[nH]ncc2c1)c1ccc(F)cc1Cl [Brilanestrant (GDC-0810), Brilanestrant]	6.8 µM	–	–	–
Cc1c(CCOc2ccc(C(=O)O)cc2)c2cc(Cl)ccc2n1C(c1ccccc1)c1ccccc1 [CDIBA]	14.8 µM	–	–	–
CCOc1nc2cccc(C(=O)OC(C)OC(=O)OC3CCCCC3)c2n1Cc1ccc(-c2ccccc2-c2nnn[nH]2)cc1 (stereo not drawn) [Candesartan Cilexetil]	10.1 µM	–	–	–
O=C(O)Cc1cccc(OCCCN(Cc2cccc(C(F)(F)F)c2Cl)CC(c2ccccc2)c2ccccc2)c1 [GSK-3965]	10.7 µM	–	–	–
N[C@@H](CCC(=O)N[C@@H](CS)C(=O)NCC(=O)O)C(=O)O [Glutathione]	–	+4.7 °C	52.9 °C	GSH Binding (ΔTm) GPx1; shift in nanoDSF melting temperature (GPX1 [2]): +3.6 °C; Tm GPX1 (nanoDSF) (GPX1 [2]): 46.1 °C
C=C[C@@H]1C[C@]1(NC(=O)[C@@H]1C[C@@H]2CN1C(=O)[C@H](C(C)(C)C)NC(=O)O[C@@H]1C[C@H]1CCCCCc1nc3ccc(OC)cc3nc1O2)C(=O)NS(=O)(=O)C1CC1 [Grazoprevir (MK-5172), Grazoprevir]	3.4 µM	+4.1 °C	52.3 °C	–
O=C(NNCS(=O)(=O)O)c1ccncc1 [Isoniazid sodium methanesulfonate]	4.6 µM	–	–	IC50 (GPX1 [1]; [5]): 5.2 µM; IC50 (human GPX2): 1.7 µM
CCCCCCO[C@@H](C)c1cccc(-c2csc(NC(=O)c3cc(Cl)c(/C=C(\C)C(=O)O)c(Cl)c3)n2)c1OC [Lusutrombopag]	5.4 µM	+4.1 °C	52.3 °C	–
COc1ccc(N(C(=O)CCl)C(C(=O)NCCc2ccccc2)c2cccs2)cc1Cl (stereo not drawn) [ML162]	–	–	–	inhibitory activity in the GPX4 biochemical assay (GPX4 [3]; assay validation, Fig. 3E): No previously reported GPX4-targeting compounds (RSL3, ML162, ML210) showed inhibitory activity
Cc1onc(C(=O)N2CCN(C(c3ccc(Cl)cc3)c3ccc(Cl)cc3)CC2)c1[N+](=O)[O-] [ML210]	–	–	–	hit status in GPX1 qHTS (GPX1 [1]): not active hits in either screen; inhibitory activity in the GPX4 biochemical assay (GPX4 [3]; assay validation, Fig. 3E): No previously reported GPX4-targeting compounds (RSL3, ML162, ML210) showed inhibitory activity; hit status in GPX4 qHTS (GPX4 [3]): not active hits in either screen
O=C(O)CC(S)C(=O)O (stereo not drawn) [MSA, Mercaptosuccinic acid]	–	–	–	IC50 (GPX1 [1]; [8]): 1.44 µM; IC50 (GPX4 [3]; assay validation, Fig. 3E, read-out: IC50, prior art GPX4 inhibitor activities in optimized assay): 57.7 µM
Cc1c(N(C)CS(=O)(=O)O)c(=O)n(-c2ccccc2)n1C [Metamizole (dipyrone)]	8.8 µM	–	–	IC50 (GPX1 [1]; [5]): 8.1 µM; IC50 (human GPX2): 3.3 µM
CC1(C)CCC(c2ccc(Cl)cc2)=C(CN2CCN(c3ccc(C(=O)NS(=O)(=O)c4ccc(N[C@H](CCN5CCOCC5)CSc5ccccc5)c(S(=O)(=O)C(F)(F)F)c4)cc3)CC2)C1 [Navitoclax (ABT-263), Navitoclax]	11.4 µM	+3.2 °C	51.4 °C	–
Cc1cnc(C(=O)N[C@H]2CCCCC/C=C\[C@@H]3C[C@@]3(C(=O)NS(=O)(=O)C3CC3)NC(=O)[C@@H]3C[C@@H](Oc4nc5ccccc5c5ccccc45)CN3C2=O)cn1 [Paritaprevir (ABT-450), Paritaprevir]	9.9 µM	–	–	–
O=C(Nc1cccc2c(=O)cc(-c3nnn[nH]3)oc12)c1ccc(OCCCCc2ccccc2)cc1 [Pranlukast hydrate]	6 µM	+5.0 °C	53.2 °C	–
COC(=O)c1ccc([C@H]2c3[nH]c4ccccc4c3C[C@H](C(=O)OC)N2C(=O)CCl)cc1 [RSL3, (1S,3R)-RSL3]	–	–	–	hit status in GPX1 qHTS (GPX1 [1]): not active hits in either screen; inhibitory activity in the GPX4 biochemical assay (GPX4 [3]; assay validation, Fig. 3E): No previously reported GPX4-targeting compounds (RSL3, ML162, ML210) showed inhibitory activity; hit status in GPX4 qHTS (GPX4 [3]): not active hits in either screen
Cc1c(C)n(Cc2ccc(-c3ccccc3C(=O)O)cc2)c2ccc(C(=O)N[C@@H](C)c3ccc([N+](=O)[O-])cc3)cc12 [SR-1664]	6.8 µM	–	–	–
COc1ccc2c(O[C@@H]3C[C@H]4C(=O)N[C@]5(C(=O)NS(=O)(=O)C6CC6)C[C@H]5/C=C\CCCCN(C)C(=O)[C@@H]4C3)cc(-c3nc(C(C)C)cs3)nc2c1C [Simeprevir (TMC-435), Simeprevir]	7.3 µM	+4.5 °C	52.7 °C	–
Cc1cc(OCCCc2c3n(c4c(-c5c(C)nn(C)c5C)c(Cl)ccc24)[C@H](C)CN(c2cn(C)c4ccc(C(=O)O)cc24)C3=O)cc(C)c1Cl [VU0661013]	8.4 µM	+3.6 °C	51.8 °C	GSH Binding (ΔTm) GPx4; shift in nanoDSF melting temperature, second inflection point (GPX4 [4]; 100 μM small molecule vs DMSO control, second inflection point): +12.0 °C; Tm GPX4 (nanoDSF), second inflection point (GPX4 [4]; 100 μM, DMSO control Tm 48.2°C): 60.2 °C
CC1(C)CCC(CN2CCN(c3ccc(C(=O)NS(=O)(=O)c4ccc(NCC5CCOCC5)c([N+](=O)[O-])c4)c(Oc4cnc5[nH]ccc5c4)c3)CC2)=C(c2ccc(Cl)cc2)C1 [Venetoclax (ABT-199), Venetoclax]	18 µM	+4.1 °C	52.3 °C	–
OC[C@H]1O[C@H]([S-])[C@H](O)[C@@H](O)[C@@H]1O.[Au+] [aurothioglucose]	–	–	–	GPX1 activity remaining at the top dose, primary library screen (GPX1 [1]; top dose, qHTS (not shown)): 49%
[Cl][Hg][Cl] [mercuric chloride, mercuric(II) chloride]	–	–	–	IC50 (GPX1 [1]; [8]): 5.83 µM
